Experiments:
[1] = test system: S. aureus; assay: In vitro antimicrobial experiments with the recombinant hybrid peptide; type: cell-based, Staphylococcus aureus; conditions: recombinant peptide from E. coli fusion expression after acid hydrolysis; not obtained pure
From the text: To expand the antimicrobial spectrum of thanatin and avoid the toxic effects of melittin, a hybrid antimicrobial peptide was designed according to a previous study (Blondelle and Houghten [1991]). Hemolysis was slightly affected by the removal of C-terminal amino acids of melittin, according to the previous study (Jahnsen et al. [2015]). Four alkaline amino acids (KRKR) are located at the C-terminal amino acids of melittin. The hybrid antimicrobial peptide that includes the full-length of thanatin and the C-terminal of melittin may reveal a stronger and safer antibacterial effect (Leonardo et al. [2012]). The hybrid antimicrobial peptide […]-AGP-[…] was designed using melittin’s C-terminal 15-amino acid mutant GLPL*[…] (L*wild type was A) as the N-terminus and thanatin as the C-terminus and by ligating with AGP to create a hybrid peptide that could inhibit S. aureus without hemolytic activity. The fusion expression of the hybrid peptide was carried out in Escherichia coli by using genetic engineering techniques, and the acid hydrolysis site AP was added to the N-terminus of the hybrid peptide. After the engineered bacteria were fermented, separated, acid-hydrolyzed, and purified, another proline residue was found on the N-terminus of the resulting peptide, that is, […]. […] However, pure hybrid peptide was not obtained due to problems associated with acid hydrolysis. […]

[2] = test system: S. aureus; conditions: ref Fehlbaum et al. [1996]; Mandard et al. [1998]; cited from earlier work
From the text: Thanatin, with a primary structure of […], is a type of antimicrobial peptide consisting of 21 amino acid residues. It is found in the insect Podisus maculiventris. […] It is a peptide consisting of 26 amino acids with a primary structure of […]. […] However, its clinical application is limited by its strong toxicity (mainly hemolytic activity), genotoxicity, and influence on gene expression (Gajski et al. [2016]; Wu et al. [2015]). To ...

[3] = thanatin data from the reference; ref Fehlbaum et al. [1996]; cited from earlier work
From the text: Table 1 Physicochemical properties of hybrid peptide | column: Isoelectric point (pI)

Row | Sequence | inhibition of growth of S. aureus [1] | inhibition of S. aureus [2] | Isoelectric point (pI) [3]
1 | PGLPLLISWIKRKRQQGSKKPVPIIYCNRRTGKCQRM [hybrid peptide expressed as fusion in Escherichia coli, acid-hydrolyzed, with another proline on the N-terminus; not obtained pure] | inhibited the growth of S. aureus | – | –
2 | GSKKPVPIIYCNRRTGKCQRM [Thanatin, thanatin, antimicrobial peptide of 21 amino acid residues found in the insect Podisus maculiventris] | – | does not inhibit S. aureus | 10.48

Source: publication PMC6353975, “Design and activity study of a melittin–thanatin hybrid peptide” (AMB Express, 2019)
